Experimental data published in patent US7799738B2, “Insecticidal 2-acylaminothiazole-4-carboxamides” (Bayer CropScience AG, priority 2005, dated 2010).

System: Spodoptera litura
Assay: Test for embryos of Spodoptera litura (sweet potato leaf dip)
Assay type: in vivo
Conditions: effective ingredient concentration 20 ppm; 3 instar, sweet potato leaves immersed; dead counted after 7 days, 25° C.
Experimental: Preparation of Sample Drug Solution
1 Part by weight of the active compound was mixed with the above-mentioned amount of a solvent containing the above-mentioned amount of emulsifier in order to prepare the formulation of an appropriate active compound, and the mixture was diluted with water to a predetermined concentration.
The leaves of sweet potato were immersed in a sample drug solution which was diluted with water to a predetermined concentration and charged in a petri dish with a diameter of 9 cm after drying the drug solution. 10 of embryos with 3 instar of Spodoptera litura were dropped thereto, the petri dish was placed in a constant temperature chamber at 25° C., the leaves of sweet potato were additionally added after 2 days and 4 days and the number of dead embryos was examined after 7 days to calculate an insecticidal rate.
In the present test, the result of 2 petri dishes per one partition was averaged.

Compound Cc1cc(C(F)(C(F)(F)F)C(F)(F)F)cc(C)c1NC(=O)c1csc(NC(=O)c2ccccc2Cl)n1 [compound 34, 2-(2-chlorobenzoyl)amino-N-(2,6-dimethyl-4 heptafluoroisopropylphenyl)-1,3-thiazole-4-carboxamide] has an insecticidal rate of 100%.
Cc1cc(C(F)(C(F)(F)F)C(F)(F)F)cc(C)c1NC(=O)c1csc(NC(=O)c2cccc(Cl)c2)n1 [compound 67, 2-(3-chlorobenzoyl)amino-N-(2,6-dimethyl-4-heptafluoro-isopropylphenyl)-1,3-thiazole-4-carboxamide] gave an insecticidal rate of 100%.
